Measurements as given in patent US7018990B2, “Combination of a factor Xa inhibitor and clopidogrel” (Bristol-Myers Squibb Company, priority 2002, dated 2006).

Tests used:
[1] = system: rabbits; assay: Electrically induced carotid artery thrombosis in anesthetized rabbits (clot inhibition, carotid blood flow); type: in vivo
Method: Rabbits were anesthetized with ketamine (50 mg/kg i.m.) and xylazine (10 mg/kg i.m.) and then surgically prepared with arterial and venous catheters. An electromagnetic flow probe was placed on a segment of an isolated carotid artery to monitor blood flow. Thrombus formation was induced by electrical stimulation of the carotid artery for 3 min at 4 mA using an external stainless-steel bipolar electrode. Carotid blood flow was measured continuously over a 45-min period to monitor thrombus occlusion. Compound A was infused intravenously whereas clopidogrel was infused into the portal vein. Both agents were infused 1 hour prior to the electrical stimulation of the carotid artery and continuously during the 45-min period.
(§1) The same experimental protocol as described in Example 1 was used in this study. Aspirin was infused intravenously whereas clopidogrel was infused into the portal vein. Both agents were infused 1 hour prior to the electrical stimulation of the carotid artery and the cuticle transection, and continuously to the end of the experiment.
The same experimental protocol as described in Example 1 was used in this study. Aspirin and Compound A were infused intravenously.

[2] = system: rabbits; assay: Cuticle bleeding time in anesthetized rabbits; conditions: clopidogrel 1 mg/kg/hr infused into the portal vein, compared to the vehicle-group
Method: The bleeding time effects of Compound A, clopidogrel, and their combination were examined in anesthetized rabbits. Rabbits were anesthetized as described above and their hind paws were shaved. A standard cut was made at the apex of the cuticle with a razor blade. Blood was allowed to flow freely by keeping the bleeding site in contact with 37° C. warm lactated Ringer's solution. Bleeding time was defined as the time after transection when bleeding was ceased. It was measured by averaging the bleeding time of three nail cuticles in the control and treatment period. Percentage change in cuticle bleeding time is calculated by comparing the bleeding time taken in the treatment period to the control bleeding time. Compounds were infused as described above.
as §1

[3] = Compound A 0.1 mg/kg/hr infused intravenously
[4] = aspirin 0.3 mg/kg/hr infused intravenously
[5] = clopidogrel 1 mg/kg/hr infused into the portal vein

CN(C)Cc1nccn1-c1ccc(NC(=O)c2cc(C(F)(F)F)nn2-c2ccc3onc(N)c3c2)c(F)c1.Cl [Compound A, 1-(3′-aminobenzisoxazol-5′-yl)-3-trifluoromethyl-5-[[4-[(2′-dimethylaminomethyl)imidazol-1′-yl]-2fluorophenyl]aminocarbonyl]pyrazole-hydrochloric acid salt]
carotid blood flow [1, 3]: increase in carotid blood flow | inhibition of clot formation [1, 3]: moderate inhibition of clot formation

CC(=O)Oc1ccccc1C(=O)O [aspirin, acetylsalicyclic acid]
carotid blood flow [1, 4]: not effective | inhibition of clot formation [1, 4]: not effective in inhibiting the formation of clot

COC(=O)[C@H](c1ccccc1Cl)N1CCc2sccc2C1 [clopidogrel, Clopidogrel]
carotid blood flow [1, 5]: increase in carotid blood flow | inhibition of clot formation [1, 5]: moderate inhibition of clot formation | bleeding time [2]: increased the bleeding time significantly
